“And” between values parts separate entries of the source, which are not always exact repeats. Equal entries are not always repeated.
Assays:
[1] = pH change on placing the compound into deionized water of pH 7; type: physicochemical; conditions: simple laboratory experiment
Text: A simple laboratory experiment confirms this effect. […] However, if icosahedral Ce(NO3)6^2− (note that this ion contains no hydroxide) is placed into deionized water of pH 7, a quite remarkable pH drop to −1 can be observed. The released tetravalent cerium ions will scavenge virtually all of the available OH^− ions in solution (possibly even degrading H2O itself to obtain OH^−), resulting in this dramatic pH drop.

[2] = reduction to the trivalent ion, cited from earlier work; for oxidation-reduction potential: in acid solution (pH 0); for calculated redox potential: in acidic solution, Nugent et al. 1971
[3] = Static salt fog accelerated corrosion test (ASTM B-117) of PVB wash primer containing the pigment, rated by ASTM D-1654; conditions: ASTM D-1654 rating; for B-117 Proc. A: failure at scribe; for B-117 Proc. B: unscribed areas
Protocol: (§1) The corrosion-inhibiting performance of CeIV pigments was evaluated by incorporating them into primer paint formulations. […] The wash primer is composed of a resin, an acid, a corrosion-inhibiting pigment, powdered talc, and carbon lampblack. The acid content of this wash primer provides a rigorous initial test of the stability and performance of the pigments. Other, more benign, polymer-based binder and resin systems might not separate the compounds based on their performance as effectively or as rapidly.
(§2) PVB was used exclusively throughout testing to avoid preparation and compositional complications during analysis of pigment performance. However, the invention is not limited to the use of PVB.
(§3) A small amount (0.2 g) of powdered talc (magnesium silicate) “filler” was added. Lampblack was not added to these samples. These components were mixed thoroughly by hand and 3.8 grams of phosphoric acid diluent added with further mixing. This rough processing allowed direct comparisons of pigment performance to be made without complications due to powder treatments, modifications, and additives.
(§4) This is not the conventional paint application procedure for aluminum alloys. Under normal service conditions, aluminum alloys are first subjected to a hexavalent chromium-containing conversion coating prior to primer application. However, the conversion coating was omitted so that the performance of the pigment alone could be evaluated and not the synergistic effects of hexavalent chromium (in the conversion coating) or even of barrier films (in the phosphate or anodized coatings).
(§5) This accelerated corrosion test exposes samples to a constant salt-water fog and is a de facto test of solubility for corrosion inhibitors. […] This accelerated corrosion test exposes samples to a cycle of fog of dilute salt and ammonium sulfate at room temperature followed by forced-air drying at an elevated temperature.
(§6) After the paint dried for 24 hours, each plate was scribed with an X and the plate edges were sealed with PVC tape to eliminate corrosion edge effects.
(§7) Two visual observations are associated with this rating test. Procedure A involves a rating of the failure at the scribe—the representative creepage of corrosion away from the scribe. […] In this way, not only the bulk corrosion-inhibiting action of a pigment through the binder can be rated, but also its “throwing power”.

[4] = Cyclic Prohesion accelerated corrosion test (ASTM G-85.5) of PVB wash primer containing the pigment, rated by ASTM D-1654; conditions: ASTM D-1654 rating; for G-85 Proc. A: failure at scribe; for G-85 Proc. B: unscribed areas
Protocol: as §1, §2, §3, §4, §5, §6, §7

[5] = in water; resulting from the reported solubility product; cited from earlier work
[6] = 2024-T3, 117 h, inhibitor conc. 1.86 × 10^−3 M (25% of Cr), two cells per column
[7] = 7075-T6, 117 h, inhibitor conc. 1.86 × 10^−3 M (25% of Cr), two cells per column
[8] = 2024-T3, 139 h, inhibitor conc. 3.72 × 10^−3 M (50% of Cr), sample and duplicate
[9] = 7075-T6, 139 h, inhibitor conc. 3.72 × 10^−3 M (50% of Cr), sample and duplicate
[10] = 2024-T3, 117 h, inhibitor conc. 7.44 × 10^−4 M (10% of Cr), sample and duplicate
[11] = 7075-T6, 117 h, inhibitor conc. 7.44 × 10^−4 M (10% of Cr), sample and duplicate
[12] = 2024-T3, 139 h, inhibitor conc. 7.44 × 10^−4 M (10% of Cr), sample and duplicate
[13] = 7075-T6, 139 h, inhibitor conc. 7.44 × 10^−4 M (10% of Cr), sample and duplicate
[14] = 2024-T3, 144 h, inhibitor conc. 5.2 × 10^−4 M (7% of Cr), sample and duplicate
[15] = 7075-T6, 144 h, inhibitor conc. 5.2 × 10^−4 M (7% of Cr), sample and duplicate
[16] = 2024-T3, 144 h, inhibitor conc. 3.72 × 10^−3 M (50% of Cr), sample and duplicate
[17] = 7075-T6, 144 h, inhibitor conc. 3.72 × 10^−3 M (50% of Cr), sample and duplicate

Compound: O=[N+]([O-])O.O=[N+]([O-])O.O=[N+]([O-])O.O=[N+]([O-])O.O=[N+]([O-])O.O=[N+]([O-])O.[Ce] [Ce(NO3)6^2−]
- pH after placing into deionized water of pH 7 [1]: −1

Compound: [Ce+4] [Ce^+4]
- oxidation-reduction potential [2]: 1.72 V

Compound: [Cr+6] [Cr^+6, reference compound]
- oxidation-reduction potential [2]: 1.36 V

Compound: CCCCCCCC[N+](C)(CCCCCCCC)CCCCCCCC.CCCCCCCC[N+](C)(CCCCCCCC)CCCCCCCC.O=[N+]([O-])[O-].O=[N+]([O-])[O-].O=[N+]([O-])[O-].O=[N+]([O-])[O-].O=[N+]([O-])[O-].O=[N+]([O-])[O-].[Ce+4] [Nitrate/Adogen 464]
- B-117 Proc. A [3, 6]: 5
- B-117 Proc. A [3, 7]: 5
- B-117 Proc. B [3, 6]: 5
- B-117 Proc. B [3, 7]: 3 and 5
- G-85 Proc. A [4, 6]: 7
- G-85 Proc. A [4, 7]: 7
- G-85 Proc. B [4, 6]: 6
- G-85 Proc. B [4, 7]: 6

Compound: CCCC[N+](CCCC)(CCCC)CCCC.CCCC[N+](CCCC)(CCCC)CCCC.O=[N+]([O-])[O-].O=[N+]([O-])[O-].O=[N+]([O-])[O-].O=[N+]([O-])[O-].O=[N+]([O-])[O-].O=[N+]([O-])[O-].[Ce+4] [Nitrate/NBu4^+]
- B-117 Proc. A [3, 6]: 7
- B-117 Proc. A [3, 7]: 7 and 6
- B-117 Proc. B [3, 6]: 5 and 6
- B-117 Proc. B [3, 7]: 6
- G-85 Proc. A [4, 6]: 9
- G-85 Proc. A [4, 7]: 9
- G-85 Proc. B [4, 6]: 8
- G-85 Proc. B [4, 7]: 8

Compound: CC[N+](CC)(CC)CC.CC[N+](CC)(CC)CC.O=[N+]([O-])[O-].O=[N+]([O-])[O-].O=[N+]([O-])[O-].O=[N+]([O-])[O-].O=[N+]([O-])[O-].O=[N+]([O-])[O-].[Ce+4] [Nitrate/NEt4^+]
- B-117 Proc. A [3, 6]: 6
- B-117 Proc. A [3, 7]: 6 and 5
- B-117 Proc. B [3, 6]: 3
- B-117 Proc. B [3, 7]: 4
- G-85 Proc. A [4, 6]: 9 and 10
- G-85 Proc. A [4, 7]: 10
- G-85 Proc. B [4, 6]: 7 and 8
- G-85 Proc. B [4, 7]: 8

Compound: C[N+](C)(C)C.C[N+](C)(C)C.O=[N+]([O-])[O-].O=[N+]([O-])[O-].O=[N+]([O-])[O-].O=[N+]([O-])[O-].O=[N+]([O-])[O-].O=[N+]([O-])[O-].[Ce+4] [Nitrate/NMe4^+]
- G-85 Proc. A [4, 6]: 8 and 7
- G-85 Proc. A [4, 7]: 8 and 7
- G-85 Proc. B [4, 6]: 7 and 6
- G-85 Proc. B [4, 7]: 7 and 6

Compound: CCCCC[N+](CCCCC)(CCCCC)CCCCC.CCCCC[N+](CCCCC)(CCCCC)CCCCC.O=[N+]([O-])[O-].O=[N+]([O-])[O-].O=[N+]([O-])[O-].O=[N+]([O-])[O-].O=[N+]([O-])[O-].O=[N+]([O-])[O-].[Ce+4] [Nitrate/NPe4^+]
- B-117 Proc. A [3, 6]: 6
- B-117 Proc. A [3, 7]: 6
- B-117 Proc. B [3, 6]: 5
- B-117 Proc. B [3, 7]: 6
- G-85 Proc. A [4, 6]: 9
- G-85 Proc. A [4, 7]: 9
- G-85 Proc. B [4, 6]: 8
- G-85 Proc. B [4, 7]: 7

Compound: CCC[N+](CCC)(CCC)CCC.CCC[N+](CCC)(CCC)CCC.O=[N+]([O-])[O-].O=[N+]([O-])[O-].O=[N+]([O-])[O-].O=[N+]([O-])[O-].O=[N+]([O-])[O-].O=[N+]([O-])[O-].[Ce+4] [Nitrate/NPr4^+]
- B-117 Proc. A [3, 6]: 7
- B-117 Proc. A [3, 7]: 7
- B-117 Proc. B [3, 6]: 7 and 6
- B-117 Proc. B [3, 7]: 6
- G-85 Proc. A [4, 6]: 9 and 10
- G-85 Proc. A [4, 7]: 9 and 8
- G-85 Proc. B [4, 6]: 8 and 9
- G-85 Proc. B [4, 7]: 7

Compound: [Pr+4] [Pr^+4]
- calculated redox potential [2]: 3.2 V

Compound: [Tb+4] [Tb^+4]
- calculated redox potential [2]: 3.2 V

Compound: [Ce+4].[OH-].[OH-].[OH-].[OH-] [ceric hydroxide, reference compound]
- pH after placing into deionized water of pH 7 [1]: only a minor pH change
- cerium solubility [5]: approximately 5×10^−12 moles/liter Ce^+4

Compound: ammonium 18-vanadatocerate
- B-117 Proc. A [3, 8]: 7
- B-117 Proc. A [3, 9]: 7
- B-117 Proc. B [3, 8]: 6
- B-117 Proc. B [3, 9]: 6
- G-85 Proc. A [4, 8]: 7 and 8
- G-85 Proc. A [4, 9]: 8
- G-85 Proc. B [4, 8]: 6 and 7
- G-85 Proc. B [4, 9]: 6 and 7

Compound: calcium 10-tungstocerate
- B-117 Proc. A [3, 10]: 3
- B-117 Proc. A [3, 11]: 2
- G-85 Proc. A [4, 10]: 7
- G-85 Proc. A [4, 11]: 7
- G-85 Proc. B [4, 10]: 6
- G-85 Proc. B [4, 11]: 6

Compound: calcium 11-phosphotungstocerate
- B-117 Proc. A [3, 12]: 6 and 5
- B-117 Proc. A [3, 13]: 4
- B-117 Proc. B [3, 12]: 4
- B-117 Proc. B [3, 13]: 3
- G-85 Proc. A [4, 12]: 8 and 7
- G-85 Proc. A [4, 13]: 6
- G-85 Proc. B [4, 12]: 8 and 7
- G-85 Proc. B [4, 13]: 5 and 6

Compound: calcium 12-molybdocerate
- B-117 Proc. A [3, 14]: 6 and 7
- B-117 Proc. A [3, 15]: 7
- B-117 Proc. B [3, 14]: 4 and 5
- B-117 Proc. B [3, 15]: 6
- G-85 Proc. A [4, 14]: 8 and 7
- G-85 Proc. A [4, 15]: 8 and 7
- G-85 Proc. B [4, 14]: 6
- G-85 Proc. B [4, 15]: 7 and 5

Compound: lithium periodatocerate
- B-117 Proc. A [3, 16]: 6 and 5
- B-117 Proc. A [3, 17]: 4
- B-117 Proc. B [3, 16]: 6 and 5
- B-117 Proc. B [3, 17]: 2 and 3
- G-85 Proc. A [4, 16]: 7
- G-85 Proc. A [4, 17]: 7
- G-85 Proc. B [4, 16]: 7
- G-85 Proc. B [4, 17]: 7

Compound: magnesium 10-tungstocerate
- B-117 Proc. A [3, 10]: 5
- B-117 Proc. A [3, 11]: 5 and 4
- B-117 Proc. B [3, 10]: 2
- B-117 Proc. B [3, 11]: 2
- G-85 Proc. A [4, 10]: 9
- G-85 Proc. A [4, 11]: 8
- G-85 Proc. B [4, 10]: 8
- G-85 Proc. B [4, 11]: 7

Compound: magnesium 11-phosphotungstocerate
- B-117 Proc. A [3, 12]: 6
- B-117 Proc. A [3, 13]: 5
- B-117 Proc. B [3, 12]: 5
- B-117 Proc. B [3, 13]: 5
- G-85 Proc. A [4, 12]: 7
- G-85 Proc. A [4, 13]: 7
- G-85 Proc. B [4, 12]: 6
- G-85 Proc. B [4, 13]: 6
